Consider 24 sequences from US20070128217A1 (priority 2003, published 2007).

The test system of assay [1] is rabbit serum obtained by immunizing a rabbit with the SARS-CoV strain Frankfurt 1. The class given is binding. The arrangement: Binding of a rabbit serum to linear peptides / Binding of a rabbit serum to looped peptides / Rabbit serum linear peptides / Rabbit serum looped peptides / Binding of a rabbit serum to linear peptides of protein N of SARS-CoV Urbani (Rabbit serum linear peptides) / Binding of a rabbit serum to looped/cyclic peptides of protein N of SARS-CoV Urbani (Rabbit serum looped peptides): unit not given here.

Assay [2] concerns control sera (pooled serum of ten healthy LUMC hospital workers; commercial negative donor pooled serum from the Dutch bloodbank). The class given is binding, human. Set-up: Binding of Control serum LUMC to linear peptides / Binding of Control serum Blood-bank to linear peptides / Binding of Control serum LUMC to looped peptides / Binding of Control Serum Blood-Bank to Looped peptides / Binding of Control serum LUMC to linear peptides of the protein M of SARS-CoV Urbani / Binding of Control serum Blood-bank to linear peptides of the protein M of SARS-CoV Urbani / Binding of Control serum LUMC to looped peptides of the protein M of SARS-CoV Urbani / Binding of Control Serum Blood-Bank to Looped peptides of the protein M of SARS-CoV Urbani: unit not given here.

Take CWHTHNYDYCIPYNS: in assay [1], the “Binding of a rabbit serum to linear peptides” value was 0.1 and the “Binding of a rabbit serum to looped peptides” value worked out at 0.7. For the same sequence, in assay [2], the “Binding of Control Serum Blood-Bank to Looped peptides” value worked out at 0.6, the “Binding of Control serum Blood-bank to linear peptides” value is on record as 0.6, the “Binding of Control serum LUMC to linear peptides” value turned out to be 0.7 and the “Binding of Control serum LUMC to looped peptides” value was found to be 0.6.

In the case of DGSSGVANPAMDPIY, in assay [1], the “Binding of a rabbit serum to linear peptides” value turned out to be 0.1 and the “Binding of a rabbit serum to looped peptides” value is recorded as 0.6. Also, in assay [2], the “Binding of Control Serum Blood-Bank to Looped peptides” value was 0.5, the “Binding of Control serum Blood-bank to linear peptides” value was 0.9, the “Binding of Control serum LUMC to linear peptides” value was determined as 0.8 and the “Binding of Control serum LUMC to looped peptides” value was found to be 0.4.

In the case of DYQIGGYSEDRHSGV, in assay [1], the “Binding of a rabbit serum to linear peptides” value stood at 0.1 and the “Binding of a rabbit serum to looped peptides” value turned out to be 0.5. In assay [2], the “Binding of Control Serum Blood-Bank to Looped peptides” value is reported as 0.5, the “Binding of Control serum Blood-bank to linear peptides” value is 0.6, the “Binding of Control serum LUMC to linear peptides” value is listed as 0.5 and the “Binding of Control serum LUMC to looped peptides” value is 0.7.

For EDRHSGVKDYVVVHG, in assay [1], the “Binding of a rabbit serum to linear peptides” value stood at 0.1 and the “Binding of a rabbit serum to looped peptides” value turned out to be 0.3. Further, in assay [2], the “Binding of Control Serum Blood-Bank to Looped peptides” value came to 1.1, the “Binding of Control serum Blood-bank to linear peptides” value stood at 0.9, the “Binding of Control serum LUMC to linear peptides” value is 0.9 and the “Binding of Control serum LUMC to looped peptides” value was 0.7.

Regarding EDYQIGGYSEDRHSG, in assay [1], the “Binding of a rabbit serum to linear peptides” value turned out to be 0.1 and the “Binding of a rabbit serum to looped peptides” value is given as 0.6. Besides, in assay [2], the “Binding of Control Serum Blood-Bank to Looped peptides” value is recorded as 0.4, the “Binding of Control serum Blood-bank to linear peptides” value is on record as 0.4, the “Binding of Control serum LUMC to linear peptides” value was 0.4 and the “Binding of Control serum LUMC to looped peptides” value stood at 0.5.

Consider FFTLGSITAQPVKID, for which, in assay [1], the “Binding of a rabbit serum to linear peptides” value is recorded as 1.1 and the “Binding of a rabbit serum to looped peptides” value turned out to be 0.0. Moreover, in assay [2], the “Binding of Control Serum Blood-Bank to Looped peptides” value is recorded as 0.2, the “Binding of Control serum Blood-bank to linear peptides” value is 0.5, the “Binding of Control serum LUMC to linear peptides” value is on record as 0.5 and the “Binding of Control serum LUMC to looped peptides” value came to 0.3.

In the case of FHPLADNKFALTCTS, in assay [1], the “Rabbit serum linear peptides” value is 0.4 and the “Rabbit serum looped peptides” value was found to be 0.2. In addition, in assay [2], the “Binding of Control Serum Blood-Bank to Looped peptides” value was determined as 0.8, the “Binding of Control serum Blood-bank to linear peptides” value is 0.8, the “Binding of Control serum LUMC to linear peptides” value stood at 0.8 and the “Binding of Control serum LUMC to looped peptides” value came to 0.8.

FNKLVKDPPNVQIHT: in assay [1], the “Binding of a rabbit serum to linear peptides” value is 0.1 and the “Binding of a rabbit serum to looped peptides” value was found to be 0.7. In assay [2], the “Binding of Control Serum Blood-Bank to Looped peptides” value turned out to be 0.8, the “Binding of Control serum Blood-bank to linear peptides” value stood at 0.8, the “Binding of Control serum LUMC to linear peptides” value was 0.9 and the “Binding of Control serum LUMC to looped peptides” value came to 0.7.

GDGISTPKLKEDYQI: in assay [1], the “Binding of a rabbit serum to linear peptides” value came out at 0.1 and the “Binding of a rabbit serum to looped peptides” value was 0.5. Also, in assay [2], the “Binding of Control Serum Blood-Bank to Looped peptides” value amounted to 0.4, the “Binding of Control serum Blood-bank to linear peptides” value is recorded as 0.6, the “Binding of Control serum LUMC to linear peptides” value stood at 0.5 and the “Binding of Control serum LUMC to looped peptides” value turned out to be 0.4.

Regarding GGIAIAMACIVGLMW, in assay [1], the “Rabbit serum linear peptides” value was determined as 0.2 and the “Rabbit serum looped peptides” value is 0.3. Moreover, in assay [2], the “Binding of Control Serum Blood-Bank to Looped peptides of the protein M of SARS-CoV Urbani” value is 0.8, the “Binding of Control serum Blood-bank to linear peptides of the protein M of SARS-CoV Urbani” value is 0.8, the “Binding of Control serum LUMC to linear peptides of the protein M of SARS-CoV Urbani” value stood at 0.8 and the “Binding of Control serum LUMC to looped peptides of the protein M of SARS-CoV Urbani” value was determined as 0.9.

Turning to GRCDIKDLPKEITVA, in assay [1], the “Rabbit serum linear peptides” value is 0.0 and the “Rabbit serum looped peptides” value was 0.1. In assay [2], the “Binding of Control Serum Blood-Bank to Looped peptides of the protein M of SARS-CoV Urbani” value is 1.0, the “Binding of Control serum Blood-bank to linear peptides of the protein M of SARS-CoV Urbani” value stood at 0.5, the “Binding of Control serum LUMC to linear peptides of the protein M of SARS-CoV Urbani” value came to 0.1 and the “Binding of Control serum LUMC to looped peptides of the protein M of SARS-CoV Urbani” value amounted to 0.9.

For the sequence GVANPAMDPIYDEPT, in assay [1], the “Binding of a rabbit serum to linear peptides” value amounted to 0.1 and the “Binding of a rabbit serum to looped peptides” value is recorded as 0.6. In addition, in assay [2], the “Binding of Control Serum Blood-Bank to Looped peptides” value came out at 0.5, the “Binding of Control serum Blood-bank to linear peptides” value came to 0.4, the “Binding of Control serum LUMC to linear peptides” value is 0.3 and the “Binding of Control serum LUMC to looped peptides” value was 0.6.

On to GYSEDRHSGVKDYVV, for which, in assay [1], the “Binding of a rabbit serum to linear peptides” value amounted to 0.1 and the “Binding of a rabbit serum to looped peptides” value came out at 0.3. Moreover, in assay [2], the “Binding of Control Serum Blood-Bank to Looped peptides” value is given as 0.6, the “Binding of Control serum Blood-bank to linear peptides” value is given as 0.8, the “Binding of Control serum LUMC to linear peptides” value is recorded as 0.8 and the “Binding of Control serum LUMC to looped peptides” value worked out at 0.6.

HPLGRCDIKDLPKEI: in assay [1], the “Rabbit serum linear peptides” value was 0.2 and the “Rabbit serum looped peptides” value is reported as 1.1. Besides, in assay [2], the “Binding of Control Serum Blood-Bank to Looped peptides of the protein M of SARS-CoV Urbani” value stood at 1.0, the “Binding of Control serum Blood-bank to linear peptides of the protein M of SARS-CoV Urbani” value was 1.0, the “Binding of Control serum LUMC to linear peptides of the protein M of SARS-CoV Urbani” value is on record as 0.7 and the “Binding of Control serum LUMC to looped peptides of the protein M of SARS-CoV Urbani” value is 0.7.

HQNSKKTTKLVVILR: the “Recognition of the peptide by the rabbit serum” value in assay [1] is reported as “recognized”. Moreover, in assay [2], the “Binding of Control Serum Blood-Bank to Looped peptides” value stood at 0.6, the “Binding of Control serum Blood-bank to linear peptides” value is on record as 0.5, the “Binding of Control serum LUMC to linear peptides” value is 0.8 and the “Binding of Control serum LUMC to looped peptides” value amounted to 0.6.

With HQTAAFRDVLVVLNK, in assay [1], the “Rabbit serum linear peptides” value is recorded as 0.4 and the “Rabbit serum looped peptides” value was determined as 0.8. Further, in assay [2], the “Binding of Control Serum Blood-Bank to Looped peptides” value came out at 0.8, the “Binding of Control serum Blood-bank to linear peptides” value came to 0.5, the “Binding of Control serum LUMC to linear peptides” value is listed as 0.9 and the “Binding of Control serum LUMC to looped peptides” value is reported as 0.6.

As to HTHNYDYCIPYNSVT, in assay [1], the “Binding of a rabbit serum to linear peptides” value stood at 0.1 and the “Binding of a rabbit serum to looped peptides” value was determined as 0.6. Also, in assay [2], the “Binding of Control Serum Blood-Bank to Looped peptides” value was found to be 0.6, the “Binding of Control serum Blood-bank to linear peptides” value was determined as 0.6, the “Binding of Control serum LUMC to linear peptides” value was 0.7 and the “Binding of Control serum LUMC to looped peptides” value was determined as 0.6.

With HYQECVRGTTVLLKE, in assay [1], the “Rabbit serum linear peptides” value is given as 0.5 and the “Rabbit serum looped peptides” value amounted to 0.5. In addition, in assay [2], the “Binding of Control Serum Blood-Bank to Looped peptides” value is recorded as 0.9, the “Binding of Control serum Blood-bank to linear peptides” value came out at 0.8, the “Binding of Control serum LUMC to linear peptides” value is reported as 0.7 and the “Binding of Control serum LUMC to looped peptides” value came out at 1.0.

For IAIAMACIVGLMWLS, in assay [1], the “Rabbit serum linear peptides” value worked out at 0.1 and the “Rabbit serum looped peptides” value was 0.3. In assay [2], the “Binding of Control Serum Blood-Bank to Looped peptides of the protein M of SARS-CoV Urbani” value is given as 0.8, the “Binding of Control serum Blood-bank to linear peptides of the protein M of SARS-CoV Urbani” value amounted to 0.5, the “Binding of Control serum LUMC to linear peptides of the protein M of SARS-CoV Urbani” value turned out to be 0.6 and the “Binding of Control serum LUMC to looped peptides of the protein M of SARS-CoV Urbani” value is reported as 0.7.

In the case of IDNASPASTVHATAT, in assay [1], the “Binding of a rabbit serum to linear peptides” value stood at 0.5 and the “Binding of a rabbit serum to looped peptides” value was found to be 0.3. Besides, in assay [2], the “Binding of Control Serum Blood-Bank to Looped peptides” value was found to be 0.7, the “Binding of Control serum Blood-bank to linear peptides” value is 0.8, the “Binding of Control serum LUMC to linear peptides” value is given as 0.7 and the “Binding of Control serum LUMC to looped peptides” value is reported as 0.6.

Regarding IFNKLVKDPPNVQIH, in assay [1], the “Binding of a rabbit serum to linear peptides” value is given as 0.1 and the “Binding of a rabbit serum to looped peptides” value stood at 0.6. In assay [2], the “Binding of Control Serum Blood-Bank to Looped peptides” value is listed as 0.6, the “Binding of Control serum Blood-bank to linear peptides” value came to 1.1, the “Binding of Control serum LUMC to linear peptides” value was 1.0 and the “Binding of Control serum LUMC to looped peptides” value is 0.6.

IGTQVLKTMSLYMAI: in assay [1], the “Binding of a rabbit serum to linear peptides” value is given as 0.1 and the “Binding of a rabbit serum to looped peptides” value came out at 0.4. Also, in assay [2], the “Binding of Control Serum Blood-Bank to Looped peptides” value stood at 0.9, the “Binding of Control serum Blood-bank to linear peptides” value is 0.8, the “Binding of Control serum LUMC to linear peptides” value amounted to 0.5 and the “Binding of Control serum LUMC to looped peptides” value is 1.0.

For IIIMRTFRIAIWNLD, in assay [1], the “Rabbit serum linear peptides” value amounted to 0.4 and the “Rabbit serum looped peptides” value was 0.5. In assay [2], the “Binding of Control Serum Blood-Bank to Looped peptides of the protein X3 of SARS-CoV Urbani” value is 0.8, the “Binding of Control serum Blood-bank to linear peptides of the protein X3 of SARS-CoV Urbani” value stood at 0.9, the “Binding of Control serum LUMC to linear peptides of the protein X3 of SARS-CoV Urbani” value is recorded as 0.9 and the “Binding of Control serum LUMC to looped peptides of the protein X3 of SARS-CoV Urbani” value stood at 0.8.

On to IMRTFRIAIWNLDVI, for which, in assay [1], the “Rabbit serum linear peptides” value is reported as 0.4 and the “Rabbit serum looped peptides” value amounted to 0.6. Moreover, in assay [2], the “Binding of Control Serum Blood-Bank to Looped peptides of the protein X3 of SARS-CoV Urbani” value is 0.9, the “Binding of Control serum Blood-bank to linear peptides of the protein X3 of SARS-CoV Urbani” value came out at 0.8, the “Binding of Control serum LUMC to linear peptides of the protein X3 of SARS-CoV Urbani” value is recorded as 0.8 and the “Binding of Control serum LUMC to looped peptides of the protein X3 of SARS-CoV Urbani” value is recorded as 0.8.
